# Assay results published in US12409184B2, “Iloprost compositions and formulations thereof” (BTG INTERNATIONAL INC., priority 2020, dated 2025).
# Values joined by “and” are separate entries in the source; they are usually repeats but may differ in a detail not shown here. Equal entries are not always repeated.
# Tests used:
# [1] = Example 3 solution stability of fully diluted ready-to-use iloprost in IV bags (HPLC); type: physicochemical
# Experimental: Iloprost 100 μg/mL injection product is administered to patients by IV bag infusion over a period of six hours. The fully diluted ready to use iloprost is prepared in pharmacy cleanroom using sterile preparation standards (USP Chapter <797>) by pharmacy trained and licensed staff. The fully diluted ready to use drug product may be prepared several hours ahead of treatment with storage at ambient conditions or several days ahead of treatment with storage at refrigerated (2-8° C.) conditions. The IV bags are prepared using empty sterile IV bags which are filled with 99 mL of 0.9% NaCl and 1.0 mL of iloprost 100 µg/mL injection product. The bags are then manually mixed gently to provide a uniform solution. […] IV Bag Sample Preparation: Two 50 mL syringes with 18-gauge needles were assembled. 1.0 mL syringe with 18-gauge needle was assembled. Using a 50 mL syringe, 50 mL of 0.9% NaCl was transferred into an empty IV bag (sterile, ICU Medical) using the injection port. Using a second 50 mL syringe, 49 mL of 0.9% NaCl was transferred into the same IV bag using the injection port resulting in 99 mL of solution. Using the 1 ml syringe, 1.0 mL of iloprost 100 μg/mL injection product was transferred into the IV bag using the injection port. The needle was removed and the port was securely closed. The IV bag was gently inverted several times to mix. During inversion, it was occasionally paused to squeeze the injection port area to ensure liquid rinsed into area several times. Sampling Procedure: For sampling, a 3 mL syringe was assembled with an 18-gauge needle. Using a 3 ml syringe, 2 mL of IV bag solution was withdrew through the injection port and 1 mL was transferred to a HPLC vial for neat injection and the other 1 ml was transferred to a back-up HPLC vial. HPLC vials were stored at refrigerated conditions 2-8° C. Sample Storage and Sampling: For each testing conditions (i-iv discussed above), 12 IV bag samples were prepared (6 IV bags for condition ia)-see below for sampling time). For condition i), all 12 IV bags were then placed into 25° C./60% RH stability chamber ensuring each bag is resting on its largest surface area side. After the first time point, the IV bags were removed from the chamber and each IV bag was mixed by inversion several times. Sampling from each IV bag was taken for HPLC analysis. After sampling, the IV bags were placed back into 25° C./60% RH stability chamber ensuring each bag is resting on its largest surface area side, until next sampling time. At each sampling time, the IV bags were removed from the chamber and each IV bag was mixed by inversion several times before samples were removed. For conditions ii) and iii), all 12 IV bags for each testing condition was placed into a 2-8° C. stability chamber ensuring each bag is resting on its largest surface area side. After 5 days have passed for condition ii) or after 8 days have passed for condition iii), the IV bags were removed from the chamber and allowed to equilibrate to room temperature. Each IV bag was mixed by inversion several times. Sampling from each IV bag was taken for HPLC analysis. Then the IV bags were placed in the 25° C./60% RH stability chamber and sampled at certain time points as discussed herein. […]
# [2] = Example 1 safety and tolerability (adverse events, vital signs, ECG, laboratory); type: in vivo, human
# Experimental: On Day 1, study drug was initiated at a starting dose of 0.5 ng/kg/min, and dose increases occurred every 30 minutes (+5 minutes) in increments of 0.5 ng/kg/min up to 2.0 ng/kg/min or the individual tolerated dose. If dose-limiting adverse events (e.g., headache, flushing, jaw pain, myalgia, nausea, or vomiting) occurred that could not be tolerated by the subject, or if the subject experienced symptomatic hypotension, then the dose was reduced in a step-wise manner by 0.5 ng/kg/min every 30 minutes (+5 minutes) until a tolerated dose was determined or the infusion was stopped until the symptoms resolved at which point the study drug was reinitiated at a previously tolerated dose. If symptomatic hypotension or a dose-limiting adverse event occurred during administration of iloprost at the starting dose (i.e., 0.5 ng/kg/min), the infusion was reduced to 0.25 ng/kg/min. If the dose of 0.25 ng/kg/min was not tolerated due to symptomatic hypotension or if a dose-limiting adverse event occurred, the study drug was discontinued, and re-initiation of the infusion could have been attempted after the event had resolved or had been treated. Blood pressure and heart rate were monitored 15 minutes (+5 minutes) prior to and after all dose changes. The maximum tolerated dose was maintained for the remaining 6-hour daily period. At the end of the 6-hour infusion period, the dose was stopped. Subjects were to be monitored for up to 1 hour after completion of study drug infusion (i.e., vital signs were obtained 15 minutes [±5 minutes] and 1 hour [±15 minutes] after completion of the infusion).
# Vital signs were measured prior to study drug administration and at 15 minutes (±5 minutes) prior to and after all dose changes during the infusion. Additionally, vital signs were monitored at 15 minutes (±5 minutes) and 1 hour (±15 minutes) after completion of the 6-hour infusion.
# Safety parameters included adverse events, physical examination findings, vital sign measurements (heart rate and blood pressure), 12-lead electrocardiogram (ECG) findings, and standard clinical laboratory measurements (chemistry and hematology).
# [3] = Table 8A, IV bag 25° C./60% RH, 2 h
# [4] = Table 8A, IV bag 25° C./60% RH, 4 h
# [5] = Table 8A, IV bag 25° C./60% RH, 6 h
# [6] = Table 8A, IV bag 25° C./60% RH, 8 h
# [7] = Table 8A, IV bag 25° C./60% RH, 24 h
# [8] = Table 8B, Batch 1, 25° C./60% RH, 8 hr
# [9] = Table 8B, Batch 1, 25° C./60% RH, 12 hr
# [10] = Table 8B, Batch 1, 25° C./60% RH, 48 hr
# [11] = Table 8B, Batch 1, 25° C./60% RH, 96 hr
# [12] = Table 8C, Batch 2, 25° C./60% RH, 8 hr
# [13] = Table 8C, Batch 2, 25° C./60% RH, 12 hr
# [14] = Table 8C, Batch 2, 25° C./60% RH, 48 hr
# [15] = Table 8C, Batch 2, 25° C./60% RH, 96 hr
# [16] = Table 8D, Batch 1, 5° C. for 5 days
# [17] = Table 8D, Batch 1, 5° C. for 5 days, 25° C./60% RH for 8 hr
# [18] = Table 8D, Batch 1, 5° C. for 5 days, 25° C./60% RH for 12 hr
# [19] = Table 8E, Batch 2, 5° C. for 5 days
# [20] = Table 8E, Batch 2, 5° C. for 5 days, 25° C./60% RH for 8 hr
# [21] = Table 8E, Batch 2, 5° C. for 5 days, 25° C./60% for 12 hr
smiles,measurement,setting,value
"CC#CCC(C)[C@H](O)/C=C/[C@@H]1[C@H]2C/C(=C/CCCC(=O)O)C[C@H]2C[C@H]1O (stereo partly drawn) [Iloprost, (5E)-5-[(3aS,4R,5R,6aS)-5-hydroxy-4-[(E,3S)-3-hydroxy-4-methyloct-1-en-6-ynyl]-3,3a,4,5,6,6a-hexahydro-1H-pentalen-2-ylidene]pentanoic acid]",% Initial,[1]; [3],100.8% and 99.4% and 100.2% and 99.7% and 100.5% and 100.4%
same,Iloprost (%),[1]; [3],95.0% and 94.2% and 94.8% and 94.7% and 95.3%
same,% Initial,[1]; [4],101.0% and 99.5% and 99.6% and 100.3% and 101.3% and 101.9%
same,Iloprost (%),[1]; [4],95.2% and 94.3% and 94.7% and 95.5% and 96.7%
same,% Initial,[1]; [5],101.6% and 100.2% and 100.5% and 99.3% and 101.7% and 100.6%
same,Iloprost (%),[1]; [5],95.7% and 95.0% and 95.1% and 93.7% and 95.9% and 95.4%
same,% Initial,[1]; [6],100.0% and 101.9% and 101.1% and 99.9%
same,Iloprost (%),[1]; [6],94.3% and 94.8% and 94.6% and 96.2% and 95.3%
same,% Initial,[1]; [7],102.2% and 101.4% and 102.0% and 100.1% and 98.9% and 100.5%
same,Iloprost (%),[1]; [7],97.0% and 95.5% and 96.7% and 94.7% and 93.4% and 94.8%
same,Iloprost (%),"[1]; Table 8A, IV bag, 1.0 mL 100 μg/mL product + 99 mL 0.9% NaCl, Initial, Samples 1-6",94.2% and 94.8% and 94.6% and 94.4% and 94.3% and 94.9%
same,% Initial,[1]; [8],100% and 104% and 101% and 103%
same,Iloprost,[1]; [8],973.6 ng/mL and 1010 ng/mL and 979.5 ng/mL and 1003 ng/mL and 977.2 ng/mL and 1007 ng/mL
same,% Initial,[1]; [9],103% and 104% and 105% and 99%
same,Iloprost,[1]; [9],1004 ng/mL and 1009 ng/mL and 978.2 ng/mL and 1042 ng/mL and 975.1 ng/mL and 1005 ng/mL
same,% Initial,[1]; [10],103% and 101% and 100%
same,Iloprost,[1]; [10],1004 ng/mL and 995.2 ng/mL and 968 ng/mL and 1001 ng/mL and 984.6 ng/mL and 977.3 ng/mL
same,% Initial,[1]; [11],104% and 105% and 103% and 102% and 101% and 100%
same,Iloprost,[1]; [11],1013 ng/mL and 1017 ng/mL and 970.9 ng/mL and 1014 ng/mL and 994.1 ng/mL and 971.5 ng/mL
same,Iloprost,"[1]; Table 8B, Batch 1, IV bag, Initial (T = 0), Preparations 1-6",975.8 ng/mL and 977.5 ng/mL and 968.7 ng/mL and 942.8 ng/mL and 994.1 ng/mL and 981.9 ng/mL
same,% Initial,[1]; [12],102% and 101% and 100% and 96%
same,Iloprost,[1]; [12],995.8 ng/mL and 1002 ng/mL and 994.6 ng/mL and 1004 ng/mL and 998.8 ng/mL and 983.3 ng/mL
same,% Initial,[1]; [13],101% and 99% and 100% and 98%
same,Iloprost,[1]; [13],993.3 ng/mL and 984.1 ng/mL (2×) and 989.6 ng/mL and 994.8 ng/mL and 1005 ng/mL
same,% Initial,[1]; [14],101% and 99% and 104% and 100%
same,Iloprost,[1]; [14],993.7 ng/mL and 984.2 ng/mL and 994.4 ng/mL and 1032 ng/mL and 1005 ng/mL and 1015 ng/mL
same,% Initial,[1]; [15],102% and 99% and 101% and 100%
same,Iloprost,[1]; [15],1002 ng/mL and 979.5 ng/mL and 989 ng/mL and 1005 ng/mL and 996.3 ng/mL and 1027 ng/mL
same,Iloprost,"[1]; Table 8C, Batch 2, IV bag, Initial (T = 0), Preparations 1-6",1021 ng/mL and 980.9 ng/mL and 990.7 ng/mL and 980.7 ng/mL and 994.4 ng/mL and 1001 ng/mL
same,% Initial,[1]; [16],104% and 98% and 101% and 100% and 99%
same,Iloprost,[1]; [16],1050 ng/mL and 931.9 ng/mL and 1024 ng/mL (2×) and 1020 ng/mL and 1001 ng/mL
same,% Initial,[1]; [17],99% and 100% and 98% and 102% and 101%
same,Iloprost,[1]; [17],1002 ng/mL and 957.3 ng/mL and 993.8 ng/mL and 1040 ng/mL and 1025 ng/mL and 1011 ng/mL
same,% Initial,[1]; [18],97% and 99% and 100% and 101%
same,Iloprost,[1]; [18],976.5 ng/mL and 943.2 ng/mL and 1015 ng/mL and 1031 ng/mL and 1010 ng/mL and 982.7 ng/mL
same,Iloprost,"[1]; Table 8D, Batch 1, IV bag, Initial (T = 0)",996.6 ng/mL and 1007 ng/mL and 953.6 ng/mL and 1015 ng/mL and 1020 ng/mL and 1036 ng/mL
same,% Initial,[1]; [19],102% and 100% and 101%
same,Iloprost,[1]; [19],1026 ng/mL and 1009 ng/mL and 1025 ng/mL and 1030 ng/mL and 1011 ng/mL and 987.4 ng/mL
same,% Initial,[1]; [20],101% and 99% and 100% and 98%
same,Iloprost,[1]; [20],1023 ng/mL and 973.1 ng/mL and 1013 ng/mL and 1012 ng/mL and 996.7 ng/mL and 970.8 ng/mL
same,% Initial,[1]; [21],101% and 98% and 102% and 100%
same,Iloprost,[1]; [21],1022 ng/mL and 963.3 ng/mL and 1001 ng/mL
same,Iloprost,"[1]; Table 8E, Batch 2, IV bag, Initial (T = 0)",988.4 ng/mL
same,% Initial,"[1]; Table 8F (5° C. for 8 days to 25° C./60% RH), Batch 1, time point 5° C. for 5 days [sic]",103% and 99% and 102% and 100%
same,% Initial,"[1]; Table 8F, Batch 1, 5° C. for 8 days, 25° C./60% RH for 8 hr",99% and 98% and 107% and 100%
same,% Initial,"[1]; Table 8F, Batch 1, 5° C. for 8 days, 25° C./60% RH for 12 hr",101% and 100% and 99%
same,% Initial,"[1]; Table 8G (5° C. for 8 days to 25° C./60% RH), Batch 2, time point 5° C. for 5 days [sic]",99% and 97% and 102%
same,TEAE abdominal pain,"[2]; human, in vivo, 5 days",4 [23.5%] subjects (%)
same,TEAE flushing,"[2]; human, in vivo, 5 days",5 [29.4%] subjects (%)
same,TEAE headache,"[2]; human, in vivo, 5 days",16 [94.1%] subjects (%)
same,TEAE nausea,"[2]; human, in vivo, 5 days",11 [64.7%] subjects (%)
same,subjects who experienced TEAEs considered severe by the Investigator,"[2]; human, in vivo, 5 days",Two (11.8%) subjects (%)
same,subjects who experienced a TEAE,"[2]; human, in vivo, 5 days",17 (100.0%) subjects (%)
same,"TEAEs related to vital signs, physical examination findings, or ECGs",[2]; in vivo,no TEAEs
same,bradycardia or tachycardia,[2]; in vivo,no bradycardia or tachycardia
same,changes in chemistry or hematology laboratory values,[2]; in vivo,no clinically significant changes
same,hypertensive or hypotensive events,[2]; in vivo,no hypertensive or hypotensive events
same,"deaths, SAEs, AESIs, TEAEs leading to study drug discontinuation",[2]; whole study,"no deaths, SAEs, AESIs, or TEAEs leading to study drug discontinuation"
